Laboratory results: US7192924B2, “Corticotropin releasing factor 2 receptor agonists” (priority 2002, dated 2007)
Peptide text beside a SMILES is read from it.

Experiments:
CRF2R = target: T1, CRF2R (Homo sapiens, UniProt Q13324); experiment: CRF2R agonist activity (EC50, Emax), called comparative CRF binding; format: cell-based; settings: read-out: CRF2R EC50
T1 sequence (Q13324 1-411): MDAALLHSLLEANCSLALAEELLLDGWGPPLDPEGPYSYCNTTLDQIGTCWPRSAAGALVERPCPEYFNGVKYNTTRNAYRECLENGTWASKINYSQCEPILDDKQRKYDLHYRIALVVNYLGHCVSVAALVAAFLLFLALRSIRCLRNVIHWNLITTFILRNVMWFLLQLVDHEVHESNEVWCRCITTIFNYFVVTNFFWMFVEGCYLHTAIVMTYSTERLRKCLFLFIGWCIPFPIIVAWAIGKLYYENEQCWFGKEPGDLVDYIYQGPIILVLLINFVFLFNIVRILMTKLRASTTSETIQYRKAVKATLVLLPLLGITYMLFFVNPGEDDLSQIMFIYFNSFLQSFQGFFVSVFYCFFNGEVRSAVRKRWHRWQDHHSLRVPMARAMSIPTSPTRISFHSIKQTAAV
Outline: (§1)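 Peptides were applied to cells carrying a single CRFR subtype, then cAMP levels or CRE-driven reporter expression were quantified against vehicle-treated cells.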

CRF1R = target: T2, CRF1R (Homo sapiens, UniProt P34998); experiment: CRF1R agonist activity (EC50, Emax), called comparative CRF binding; format: cell-based; settings: read-out: CRF1R EC50
T2 sequence (P34998 24-415): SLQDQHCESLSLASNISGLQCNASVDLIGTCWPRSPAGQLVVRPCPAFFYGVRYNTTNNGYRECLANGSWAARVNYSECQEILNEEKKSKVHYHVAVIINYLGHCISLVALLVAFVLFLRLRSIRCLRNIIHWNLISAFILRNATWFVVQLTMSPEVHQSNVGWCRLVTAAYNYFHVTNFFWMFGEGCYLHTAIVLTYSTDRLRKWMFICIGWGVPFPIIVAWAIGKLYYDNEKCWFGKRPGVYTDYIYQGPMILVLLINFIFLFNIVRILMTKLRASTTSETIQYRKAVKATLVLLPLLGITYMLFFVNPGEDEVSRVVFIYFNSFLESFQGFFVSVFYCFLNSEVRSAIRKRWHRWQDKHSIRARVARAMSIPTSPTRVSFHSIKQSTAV
Outline: as §1

Row | Structure (SMILES) | EC50 (CRF2R) [nM] | EC50 (CRF1R) [nM]
1 | CC[C@H](C)[C@H](NC(=O)[C@H](CCCNC(=N)N)NC(=O)[C@H](C)NC(=O)[C@H](CC(N)=O)NC(=O)[C@H](CCC(N)=O)NC(=O)[C@H](CCC(=O)O)NC(=O)[C@H](C)NC(=O)[C@H](CCCNC(=N)N)NC(=O)[C@H](CCC(=O)O)NC(=O)[C@H](CCCNC(=N)N)NC(=O)[C@H](CCC(N)=O)NC(=O)[C@H](CO)NC(=O)[C@H](CCC(N)=O)NC(=O)[C@@H](NC(=O)[C@H](CCCCN)NC(=O)[C@H](CCC(=O)O)NC(=O)[C@H](CC(C)C)NC(=O)[C@H](CCC(=O)O)NC(=O)[C@H](CC(C)C)NC(=O)[C@H](CC(C)C)NC(=O)[C@@H](NC(=O)[C@H](CCCNC(=N)N)NC(=O)[C@H](CC(C)C)NC(=O)[C@H](CC(C)C)NC(=O)[C@H](CC(C)C)NC(=O)[C@H](CC(C)C)NC(=O)[C@@H]1CCCN1C(=O)[C@H](CC(C)C)NC(=O)[C@H](CC(=O)O)NC(=O)[C@@H](NC(=O)[C@H](CO)NC(=O)[C@H](CC(C)C)NC(=O)[C@H](CO)NC(=O)[C@@H]1CCCN1C(=O)[C@H](CC(N)=O)NC(=O)[C@@H](N)CC(=O)O)[C@@H](C)CC)[C@@H](C)O)[C@@H](C)O)C(=O)N[C@@H](Cc1ccccc1)C(=O)N[C@@H](CC(=O)O)C(=O)N[C@@H](CCCNC(=N)N)C(=O)N[C@H](C(N)=O)C(C)C [compound 338] (H-DNPSLSIDLPLLLLRTLLELEKTQSQRERAEQNARIFDRV-NH2; N-terminus assumed) | 19.3 | ≥ 1000
2 | CC[C@H](C)[C@H](NC(=O)[C@H](CCCNC(=N)N)NC(=O)[C@H](C)NC(=O)[C@H](CC(N)=O)NC(=O)[C@H](CCC(N)=O)NC(=O)[C@H](CCC(=O)O)NC(=O)[C@H](C)NC(=O)[C@H](CCCNC(=N)N)NC(=O)[C@H](CCC(=O)O)NC(=O)[C@H](CCCNC(=N)N)NC(=O)[C@H](CCC(N)=O)NC(=O)[C@H](CO)NC(=O)[C@H](CCC(N)=O)NC(=O)[C@@H](NC(=O)[C@H](CCCNC(=N)N)NC(=O)[C@H](C)NC(=O)[C@H](CC(C)C)NC(=O)[C@H](CCC(=O)O)NC(=O)[C@H](CC(C)C)NC(=O)[C@H](CC(C)C)NC(=O)[C@@H](NC(=O)[C@H](CCCNC(=N)N)NC(=O)[C@H](CC(C)C)NC(=O)[C@H](CC(C)C)NC(=O)[C@H](CC(C)C)NC(=O)[C@H](CC(C)C)NC(=O)[C@@H]1CCCN1C(=O)[C@H](CC(C)C)NC(=O)[C@H](CC(=O)O)NC(=O)[C@@H](NC(=O)[C@H](CO)NC(=O)[C@H](CC(C)C)NC(=O)[C@H](CO)NC(=O)[C@@H]1CCCN1C(=O)[C@H](CC(N)=O)NC(=O)[C@@H](N)CC(=O)O)[C@@H](C)CC)[C@@H](C)O)[C@@H](C)O)C(=O)N[C@@H](Cc1ccccc1)C(=O)N[C@@H](C)C(=O)N[C@@H](CCCNC(=N)N)C(=O)N[C@H](C(N)=O)C(C)C [compound 340] (H-DNPSLSIDLPLLLLRTLLELARTQSQRERAEQNARIFARV-NH2; N-terminus assumed) | 7.99 | 739
3 | CC[C@H](C)[C@H](NC(=O)[C@H](CCCNC(=N)N)NC(=O)[C@H](C)NC(=O)[C@H](CC(N)=O)NC(=O)[C@H](CCC(N)=O)NC(=O)[C@H](CCC(=O)O)NC(=O)[C@H](C)NC(=O)[C@H](CCCNC(=N)N)NC(=O)[C@H](CCC(=O)O)NC(=O)[C@H](CCCNC(=N)N)NC(=O)[C@H](CCC(N)=O)NC(=O)[C@H](CO)NC(=O)[C@H](CCC(N)=O)NC(=O)[C@@H](NC(=O)[C@H](CCCCN)NC(=O)[C@H](CCC(=O)O)NC(=O)[C@H](CC(C)C)NC(=O)[C@H](CCC(=O)O)NC(=O)[C@H](CC(C)C)NC(=O)[C@H](CC(C)C)NC(=O)[C@@H](NC(=O)[C@H](CCCNC(=N)N)NC(=O)[C@H](CC(C)C)NC(=O)[C@H](CC(C)C)NC(=O)[C@H](CC(C)C)NC(=O)[C@H](CC(C)C)NC(=O)[C@@H]1CCCN1C(=O)[C@H](CC(C)C)NC(=O)[C@H](CC(=O)O)NC(=O)[C@@H](NC(=O)[C@H](CO)NC(=O)[C@H](CC(C)C)NC(=O)[C@H](CO)NC(=O)[C@@H]1CCCN1C(=O)[C@H](CC(N)=O)NC(=O)[C@@H](N)CC(=O)O)[C@@H](C)CC)[C@@H](C)O)[C@@H](C)O)C(=O)N[C@@H](Cc1ccccc1)C(=O)N[C@@H](C)C(=O)N[C@@H](CCCNC(=N)N)C(=O)N[C@H](C(N)=O)C(C)C [compound 341] (H-DNPSLSIDLPLLLLRTLLELEKTQSQRERAEQNARIFARV-NH2; N-terminus assumed) | 8.83 | 850
4 | CC[C@H](C)[C@H](NC(=O)[C@H](C)NC(=O)[C@H](CC(N)=O)NC(=O)[C@H](CCC(N)=O)NC(=O)[C@H](CCC(=O)O)NC(=O)[C@H](C)NC(=O)[C@H](CCCNC(=N)N)NC(=O)[C@H](CCC(=O)O)NC(=O)[C@H](CCCNC(=N)N)NC(=O)[C@H](CCC(N)=O)NC(=O)[C@H](CO)NC(=O)[C@H](CCC(N)=O)NC(=O)[C@@H](NC(=O)[C@H](CCCCN)NC(=O)[C@H](CCC(=O)O)NC(=O)[C@H](CC(C)C)NC(=O)[C@H](CCC(=O)O)NC(=O)[C@H](CC(C)C)NC(=O)[C@H](CC(C)C)NC(=O)[C@@H](NC(=O)[C@H](CCCNC(=N)N)NC(=O)[C@H](CC(C)C)NC(=O)[C@H](CC(C)C)NC(=O)[C@H](Cc1ccccc1)NC(=O)[C@H](CC(C)C)NC(=O)[C@@H]1CCCN1C(=O)[C@H](CC(C)C)NC(=O)[C@H](CC(=O)O)NC(=O)[C@@H](NC(=O)[C@H](CO)NC(=O)[C@H](CC(C)C)NC(=O)[C@H](CO)NC(=O)[C@@H]1CCCN1C(=O)[C@H](CC(N)=O)NC(=O)[C@@H](N)CC(=O)O)[C@@H](C)CC)[C@@H](C)O)[C@@H](C)O)C(=O)N[C@H](C(=O)N[C@@H](Cc1ccccc1)C(=O)N[C@@H](C)C(=O)N[C@@H](CO)C(=O)N[C@H](C(N)=O)C(C)C)[C@@H](C)CC [compound 343] (H-DNPSLSIDLPLFLLRTLLELEKTQSQRERAEQNAIIFASV-NH2; N-terminus assumed) | 13.6 | 783
5 | CC[C@H](C)[C@H](NC(=O)[C@H](C)NC(=O)[C@H](CC(N)=O)NC(=O)[C@H](CCC(N)=O)NC(=O)[C@H](CCC(=O)O)NC(=O)[C@H](C)NC(=O)[C@H](CCCNC(=N)N)NC(=O)[C@H](CCC(=O)O)NC(=O)[C@H](CCCNC(=N)N)NC(=O)[C@H](CCC(N)=O)NC(=O)[C@H](CO)NC(=O)[C@H](CCC(N)=O)NC(=O)[C@@H](NC(=O)[C@H](CCCCN)NC(=O)[C@H](CCC(=O)O)NC(=O)[C@H](CC(C)C)NC(=O)[C@H](CCC(=O)O)NC(=O)[C@H](CC(C)C)NC(=O)[C@H](CC(C)C)NC(=O)[C@@H](NC(=O)[C@H](CCCNC(=N)N)NC(=O)[C@H](CC(C)C)NC(=O)[C@H](CC(C)C)NC(=O)[C@H](CC(C)C)NC(=O)[C@H](CC(C)C)NC(=O)[C@@H]1CCCN1C(=O)[C@H](CC(C)C)NC(=O)[C@H](CC(=O)O)NC(=O)[C@@H](NC(=O)[C@H](CO)NC(=O)[C@H](CC(C)C)NC(=O)[C@H](CO)NC(=O)[C@@H]1CCCN1)[C@@H](C)CC)[C@@H](C)O)[C@@H](C)O)C(=O)N[C@H](C(=O)N[C@@H](Cc1ccccc1)C(=O)N[C@@H](C)C(=O)N[C@@H](CO)C(=O)N[C@H](C(N)=O)C(C)C)[C@@H](C)CC [compound 344] (H-PSLSIDLPLLLLRTLLELEKTQSQRERAEQNAIIFASV-NH2) | 4.3 | 650
6 | CC[C@H](C)[C@H](NC(=O)[C@H](C)NC(=O)[C@H](CC(N)=O)NC(=O)[C@H](CCC(N)=O)NC(=O)[C@H](CCC(=O)O)NC(=O)[C@H](C)NC(=O)[C@H](CCCNC(=N)N)NC(=O)[C@H](CCC(=O)O)NC(=O)[C@H](CCCNC(=N)N)NC(=O)[C@H](CCC(N)=O)NC(=O)[C@H](CO)NC(=O)[C@H](CCC(N)=O)NC(=O)[C@@H](NC(=O)[C@H](CCCCN)NC(=O)[C@H](CCC(=O)O)NC(=O)[C@H](CC(C)C)NC(=O)[C@H](CCC(=O)O)NC(=O)[C@H](CC(C)C)NC(=O)[C@H](CC(C)C)NC(=O)[C@@H](NC(=O)[C@H](CCCNC(=N)N)NC(=O)[C@H](CC(C)C)NC(=O)[C@H](CC(C)C)NC(=O)[C@H](CC(C)C)NC(=O)[C@H](CC(C)C)NC(=O)[C@@H]1CCCN1C(=O)[C@H](CC(C)C)NC(=O)[C@H](CC(=O)O)NC(=O)[C@@H](NC(=O)[C@H](CO)NC(=O)[C@H](CC(C)C)NC(=O)[C@H](CO)NC(=O)[C@@H]1CCCN1C(=O)[C@H](CC(N)=O)NC(=O)[C@@H](N)CC(=O)O)[C@@H](C)CC)[C@@H](C)O)[C@@H](C)O)C(=O)N[C@H](C(=O)N[C@@H](Cc1ccccc1)C(=O)N[C@@H](C)C(=O)N[C@@H](CO)C(=O)N[C@H](C(N)=O)C(C)C)[C@@H](C)CC [compound 347] (H-DNPSLSIDLPLLLLRTLLELEKTQSQRERAEQNAIIFASV-NH2) | 22.4 | ≥ 1000
